Test results as given in patent US20230039086A1, “BMS-986165 CRYSTAL FORM, PREPARATION METHOD THEREFOR AND USE THEREOF” (CRYSTAL PHARMACEUTICAL (SUZHOU) CO., LTD., priority 2019, published 2023).
“Also recorded” adds a separate entry of the source.

Columns and labels:
[1] = phase III clinical study results announced in November 2020, moderate to severe plaque psoriasis; cited from earlier work
[2] = systemic lupus erythematosus and Crohn's disease; cited from earlier work
[3] = Compressibility (ENERPAC manual tablet press, tablet hardness and tensile strength); assay type: physicochemical; settings: 80 mg, φ6 mm round tooling, 10 KN; for Diameter / Hardness / Thickness: after 24 h at room temperature; for Tensile strength: calculated T=2H/πDL*9.8
Protocol: (§1) ENERPAC manual tablet press was used for compression. 80 mg of Form CSI and Form A were weighed and added into the dies of a φ6 mm round tooling, compressed at 10 KN manually, then stored at room temperature for 24 h until complete elastic recovery. Hardness (H) was tested with an intelligent tablet hardness tester. Diameter (D) and thickness (L) were tested with caliper. Tensile strength of the powder was calculated with the following formula: T=2H/πDL*9.8. Under a certain force, the greater the tensile strength, the better the compressibility.
as §1, with “CSII” for “CSI”

[4] = Adhesiveness (material sticking to the punch during compression); assay type: physicochemical; settings: for Adhesiveness (in words): compared with Form A where a comparison is stated
Protocol: Approximately 30 mg of Form CSII and Form A were weighed and then added into the dies of φ8 mm round tooling, compressed at 10 kN and held for 30 s. The material sticking to the punch was recorded. The compression was repeated twice and the cumulative amount, maximum amount and average amount of material sticking to the punch during the compression were recorded.

[5] = Storage stability at 25 °C/60% RH and 40 °C/75% RH, crystalline form by XRPD and chemical purity by HPLC; assay type: physicochemical; settings: for Purity: HPLC; for Crystalline form after storage: XRPD
Protocol: Approximately 5 mg of Form CSI in the present disclosure was stored under different conditions of 25° C./60% RH and 40° C./75% RH. Crystalline form and chemical purity were checked by XRPD and HPLC, respectively.
Approximately 5 mg of Form CSII in the present disclosure was stored under different conditions of 25° C./60% RH and 40° C./75% RH. Crystalline form and chemical purity were checked by XRPD and HPLC, respectively.

[6] = Physical stability under pressure (tableting), XRPD before and after; assay type: physicochemical
Text: A certain amount of Form CSI was compressed into tablets under 3 kN, 7 kN and 14 kN with suitable tableting die. Crystalline forms before and after tableting were checked by XRPD.
A certain amount of Form CSII was compressed into tablets under 5 kN, 10 kN and 20 kN with suitable tableting die. Crystalline forms before and after tableting were checked by XRPD.

[7] = Thermodynamic stability: suspension of Form A plus Form CSI stirred at 5 °C, solid checked by XRPD; assay type: physicochemical
Protocol: A certain amount of Form A was weighed into glass vail and 0.3 mL of solvent mixtures of water and acetonitrile, water and methanol, or water and acetone according to table 8 were added to form suspensions. Approximately 6 mg of Form CSI of the present disclosure was added in the suspension. After mixing at 5° C. for 5 minutes, a portion of the solid was taken out and tested by XRPD. After the suspension was stirred at 5° C. for 6 days, a portion of the solid was taken out and tested by XRPD again.

[8] = Physical stability on manual grinding, XRPD before and after; assay type: physicochemical; settings: ground manually for 5 minutes in a mortar
Protocol: Form CSII was grounded manually for 5 minutes in a mortar. Crystalline form before and after grinding were checked by XRPD.

[9] = about 30 mg, φ8 mm round tooling, 10 kN held for 30 s
[10] = 25 °C/60% RH, open and sealed, 6 months
[11] = 25 °C/60% RH, sealed (closed), 6 months
[12] = 40 °C/75% RH, open and sealed, 6 months
[13] = 40 °C/75% RH, sealed (closed), 6 months

Row | Average amount of material sticking to the punch [4, 9] [mg] | Maximum amount of material sticking to the punch [4, 9] [mg] | Adhesiveness (in words) [4] | Time for which the crystalline form is stable (does not change) ([5]; 25 °C/60% RH, open and sealed) | Change of chemical purity during storage (in words) [5, 10] | Crystalline form after storage ([5]; 25 °C/60% RH, open, 6 months) | Crystalline form after storage [5, 11] | Time for which the crystalline form is stable (does not change) ([5]; 40 °C/75% RH, open and sealed) | Change of chemical purity during storage (in words) [5, 12] | Crystalline form after storage ([5]; 40 °C/75% RH, open, 6 months) | Crystalline form after storage [5, 13] | Diameter [3] [mm] | Hardness [3] [kgf] | Thickness [3] [mm] | Tensile strength [3] [MPa] | Structure (SMILES) | Compressibility / behaviour during tablet pressing (in words) [3] | other results
1 |  |  |  |  |  |  |  |  |  |  |  |  |  |  |  | [2H]C([2H])([2H])NC(=O)c1nnc(NC(=O)C2CC2)cc1Nc1cccc(-c2ncn(C)n2)c1OC [BMS-986165, 6-(cyclopropanecarboxamido)-4-((2-methoxy-3-(1-methyl-1H-1,2,4-triazol-3-yl)phenyl)amino)-N-(methyl-d3)pyridazine-3-carboxamide] |  | Clinical effect [1]: positive clinical effects; Therapeutic effect [2]: good therapeutic effects
2 | 0.190 | 0.260 | high adhesiveness |  |  |  |  |  |  |  |  |  |  |  |  | [2H]C([2H])([2H])NC(=O)c1nnc(NC(=O)C2CC2)cc1Nc1cccc(-c2ncn(C)n2)c1OC [Form A, 6-(cyclopropanecarboxamido)-4-((2-methoxy-3-(1-methyl-1H-1,2,4-triazol-3-yl)phenyl)amino)-N-(methyl-d3)pyridazine-3-carboxamide, reference compound] | poor compressibility; also recorded: splintering | Adhesion quantity of Form A relative to that of Form CSII [4, 9]: 3.2 times
3 | 0.105 | 0.130 | superior to that of Form A | at least 6 months | remains substantially unchanged | CSI | CSI | at least 6 months | remains substantially unchanged | CSI | CSI | 6.06 | 7.87 | 2.39 | 3.39 | [2H]C([2H])([2H])NC(=O)c1nnc(NC(=O)C2CC2)cc1Nc1cccc(-c2ncn(C)n2)c1OC [Form CSI, 6-(cyclopropanecarboxamido)-4-((2-methoxy-3-(1-methyl-1H-1,2,4-triazol-3-yl)phenyl)amino)-N-(methyl-d3)pyridazine-3-carboxamide] | better compressibility compared with Form A | Chemical purity during storage [5, 10]: above 98.0%; Purity ([5]; 25 °C/60% RH, open, 6 months): 98.76%; Purity ([5]; 25 °C/60% RH, sealed, 6 months): 98.79%; Purity ([5]; 40 °C/75% RH, open, 6 months): 98.74%; Purity ([5]; 40 °C/75% RH, sealed, 6 months): 98.73%; Purity ([5]; initial): 98.13%; Crystalline state after tableting ([6]; tablets compressed under 3 kN, 7 kN and 14 kN): does not change; also recorded: doesn't change; Crystalline form of solid after stirring time 5 minutes ([7]; mixture of Form A and about 6 mg Form CSI suspended in 0.3 mL water/acetonitrile, water/methanol or water/acetone (samples 1-7), 5 minutes, XRPD): Form A +; Crystalline form of solid after stirring time 6 days ([7]; mixture of Form A and about 6 mg Form CSI suspended in 0.3 mL water/acetonitrile, water/methanol or water/acetone (samples 1-7), 6 days, XRPD): CSI; Stability relative to Form A (in words) ([7]; water/acetonitrile, water/methanol or water/acetone): better stability than Form A
4 | 0.06 | 0.06 | superior to that of Form A | at least 6 months | remains substantially unchanged | Form CSII | Form CSII | at least 6 months | remains substantially unchanged | Form CSII | Form CSII | 6.08 | 4.24 | 2.30 | 1.89 | [2H]C([2H])([2H])NC(=O)c1nnc(NC(=O)C2CC2)cc1Nc1cccc(-c2ncn(C)n2)c1OC [Form CSII, 6-(cyclopropanecarboxamido)-4-((2-methoxy-3-(1-methyl-1H-1,2,4-triazol-3-yl)phenyl)amino)-N-(methyl-d3)pyridazine-3-carboxamide] | better compressibility compared with Form A | Crystalline state after grinding [8]: does not change; also recorded: doesn't change; Crystalline state after tableting ([6]; tablets compressed under 5 kN, 10 kN and 20 kN): does not change
